{"source": "patent US20260374809A1", "about": "“COMPOUNDS USEFUL FOR THE TREATMENT AND/OR CARE OF THE SKIN, HAIR, NAILS AND/OR MUCOUS MEMBRANES” (Lubrizol Advanced Materials, Inc., priority 2022, published 2026)", "key": {"EDA-Fn": {"system": "EDA-Fn", "test": "Myofibroblast marker EDA-Fn by immunofluorescence", "assay_type": "cell-based, human", "settings": "0.01 mg/ml; basal control = 100.0, MES = 135.7", "method": "EDA-Fn is an isoform of fibronectin, which serves as marker for the presence of myofibroblasts.\nAfter the experimental protocol described in EXAMPLE 8, recovery of the cells was performed by the extraction of cells from the 3D culture and their reseeding on glass coverslips. To recover cells, the collagen hydrogel was digested in agitation at 37 °C with a collagenase solution. After the digestion, cycles of centrifugation and washing were performed to eliminate collagen debris. Then, cells were seeded on coverslips in replicated as in the conditions of the 3D cultures of EXAMPLE 8. For future fluorescence analysis, cells were seeded on glass coverslips previously coated with collagen at a density of 3×10^5 fibroblasts/cm^2, let attach overnight and fixed with 4% PFA.\nGlass coverslips were used to perform EDA-Fn immunofluorescence, a marker of myofibroblasts. EDA-Fn immunofluorescence was performed in control samples (with or without MES) and after peptide treatment (PEP-1 0.01 mg/ml). Briefly, cells attached to coverslips were permeabilized by 0.5% Triton X-100 in PBS for 10 minutes at room temperature. Then, blocking solution (4% BSA in PBS) was added for 2 hours. […] Finally, green fluorescence intensity was quantified in Operetta (PerkinElmer) for each condition and normalized by the number of nuclei. […]"}, "[1]": {"system": "Musclebind Like Protein 1 (MBNL1)", "test": "MBNL1 protein expression in human skeletal muscle cells (hSKMC), HTRF", "assay_type": "cell-based", "settings": "0.5 mg/ml, 48 hours, relative to basal control", "method": "Musclebind Like Protein 1 (MBNL1) in Human Skeletal Muscle Cells (hSKMC)\nAn increase of MBNL-1 in muscle cells helps maintaining the tone of facial skin muscles. Thus, compounds able to enhance MBNL-1 can be used as a good approach for cosmetic treatment of sagging facial appearance.\nHuman skeletal muscle cells (hSKMC) were cultured at 100,000 cells in T25 flasks with growth medium. After 4 days, cells reached around 80% of confluency and were seeded at 150,000 cells per well in 12-well plates in growth medium. Cells were incubated for 72 hours and then they were changed to differentiation medium and incubated during 48 hours. At the end of this period, cells were treated with defined peptides (0.5 mg/ml) and with medium alone for control conditions during 48 hours in differentiation medium. Cells were also treated with 2 mM of ketoprofen as a positive control.\nAfter the incubation period, cells were lysed and frozen at −80 °C. For total protein quantification protein extract was measured by Bicinchoninic Acid (BCA) method. MBNL1 protein detection was performed by Homogeneous Time Resolved Fluorescence (HTRF) technology. Normalization of MBNL1 levels were performed by total protein quantification for each condition. Results are expressed as a relative MBNL1 protein level respect to control conditions. At least 3 replicates were carried out per condition."}}, "note": "Where a SMILES comes first, the peptide text is derived from it."}
{"smiles": "CC(C)C[C@H](N)C(=O)N1CCC[C@H]1C(=O)N[C@H](C(=O)N[C@H](C(=O)O)[C@@H](C)O)C(C)C", "note": "[PEP-1, H-Leu-Pro-Val-Thr-OH] (H-LPVT-OH)", "values": [{"measurement": "Fold induction of EDA-Fn as myofibroblast marker, % Fold induction (FI) MEAN ± SEM", "setting": "EDA-Fn", "result": "172.3 ± 14.36", "unit": "%"}, {"measurement": "% MBNL1 vs Basal control", "setting": "[1]", "result": 213.0, "unit": "%"}]}
